US9216215B2, “Adjuvant system for vaccine adjuvant” (VAXFORM LLC, priority 2010, dated 2015)

Tests used:
[1] = Linkage of CTL receptor agonist to aluminum adjuvant (FIG. 2); type: physicochemical; conditions: aluminum oxyhydroxide
Excerpt: However, monosaccharides can be modified by a chemical group including but not limited to fluoride, phosphate, sulfate, or carbonate group which permits a ligand exchange linkage of the molecule to the aluminum-containing adjuvant. Method for modifying saccharides by addition of fluoride, phosphate, sulfate, or carbonate groups is well known in the art (Cantos, et al. Biochem. J. (1993) 289: 155-160; Carbohydrate Chemistry, Royal Society of Chemistry, Ed. R D Guthrie (1968)). This is illustrated in FIG. 2 utilizing mannose as the CTL receptor agonist and aluminum oxyhydroxide. […] However, addition of a phosphate group at the 1 position of mannose (MIP) results in approximately 100% linkage of the CTL agonist to the aluminum adjuvant.
Another method to the increased avidity of the saccharide for the aluminum adjuvant particle is polymerization. For instance the avidity of the saccharide for the aluminum adjuvant particle may be increased by increasing the size of the saccharide by polymerization to produce a polysaccharide. The increase avidity for the aluminum adjuvant is due to the larger number of interactions of a polysaccharide as compared to a monosaccharide to allow for the stable linkage of the polysaccharide agonist to the aluminum adjuvant particle. […]

[2] = Stability of CTL agonist linkage to aluminum oxyhydroxide on exposure to phosphate (FIG. 3A, 3B); type: physicochemical; conditions: 50 mM phosphate pH 7.4 for 30 minutes, absence of antigen
Excerpt: It is important to maintain the stability of the CTL agonist linkage to the aluminum particle upon exposure to body fluid following administration. Components of interstitial fluid such as phosphate, citrate, and protein have the potential to remove the linkage of the CTL agonist with aluminum-containing adjuvants. The resulting soluble CTL agonist may adversely impact the immune response. FIG. 3A illustrates that MIP as well as mannan maintain approximately 100% linkage with aluminum oxyhydroxide when exposed to 50 mM phosphate pH 7.4 for 30 minutes in the absence of antigen.

| Compound | linkage of the CTL agonist to the aluminum adjuvant [1] | linkage with aluminum oxyhydroxide maintained [2] |
| --- | --- | --- |
| O=P(O)(O)OC1O[C@H](CO)[C@@H](O)[C@H](O)[C@@H]1O (stereo partly shown) [MIP, Mannose-1-phosphate] | approximately 100% | approximately 100% |
| mannan | approximately 100% | approximately 100% |
